Experimental data: article PMC5247395 (EJNMMI Research, 2017)

Tests used:
[1] = n-octanol/PBS distribution coefficient (shake-flask); type: physicochemical; conditions: n-octanol/PBS pH 7.4, shake-flask
Procedure: The distribution coefficients (logD values) of the radioligands were determined by a shake-flask method using liquid-liquid extraction followed by phase separation, as previously reported (Additional file 1). In brief, the PSMA ligands were labeled at a specific activity of 5 MBq/nmol. […] The vials were vortexed vigorously for 1 min and then centrifuged for 6 min for phase separation. The concentration of radioactivity in a defined volume of each layer was measured in a γ-counter (Perkin Elmer, Wallac Wizard 1480). The distribution coefficients were expressed as the logarithm of the ratio of counts per minute (cpm) measured in the n-octanol phase to the cpm measure in the PBS phase. The values are reported as the average of at least three independent measurements (± standard deviation, SD), each performed with five replicates. Data were analyzed for significance using a one-way ANOVA test (GraphPad Prism software, version 7). A p value of <0.05 was considered as statistically significant.

[2] = test system: PC-3 PIP/flu tumor-bearing mice; assay: PET/CT and SPECT/CT imaging of PC-3 PIP/flu tumor-bearing mice; type: in vivo; conditions: 2 h after injection
Procedure: PET/CT scans were performed using a small-animal bench-top PET/CT scanner (G8, Sofie Biosciences, Culver City, California, USA, and Perkin Elmer, Massachusetts, USA) and a small-animal SPECT/CT scanner (NanoSPECT/CT^TM, Mediso Medical Imaging Systems, Budapest, Hungary), respectively (Additional file 1). During the scans, the mice were anesthetized with a mixture of isoflurane and oxygen.
The PET scans were followed by a CT of 1.5 min. The SPECT scan of 45 min duration was performed 2 h after injection of ^177Lu-PSMA-617 (~50 MBq, 1 nmol) followed by a CT of 7.5 min. Reconstruction of the acquired data was performed by using the software of the respective scanner.
All images were prepared using VivoQuant post-processing software (version 2.10, inviCRO Imaging Services and Software, Boston USA). A Gauss post-reconstruction filter (full width at half maximum = 1 mm) was applied to the images, which were presented with the scale adjusted to allow visualization of the most important organs and tissues, usually by cutting 0.5–1% of the lower scale.
PET/CT scans were performed with a small-animal bench-top PET/CT scanner (G8, Sofie Biosciences, Culver City, California, U.S. and Perkin Elmer, Massachusetts, U.S.). The energy window ranged from 150 keV to 650 keV. […]

PSMA = target: T1, PSMA (Homo sapiens, UniProt Q04609); assay: Saturation binding assay on PC-3 PIP cells (PSMA affinity, KD); conditions: for Kd: 30 min at 4 °C, saturation binding; for Relative PSMA-binding affinity: inverse molar ratio of average KD values, ^177Lu-PSMA-617 set to 1
T1 construct: expressed in transfected cells; host or cells: PC-3 PIP cells (PSMA-positive subline of human PC-3 prostate cancer cells), provided by Prof; Martin Pomper, Johns Hopkins
T1 sequence (Q04609 whole entry): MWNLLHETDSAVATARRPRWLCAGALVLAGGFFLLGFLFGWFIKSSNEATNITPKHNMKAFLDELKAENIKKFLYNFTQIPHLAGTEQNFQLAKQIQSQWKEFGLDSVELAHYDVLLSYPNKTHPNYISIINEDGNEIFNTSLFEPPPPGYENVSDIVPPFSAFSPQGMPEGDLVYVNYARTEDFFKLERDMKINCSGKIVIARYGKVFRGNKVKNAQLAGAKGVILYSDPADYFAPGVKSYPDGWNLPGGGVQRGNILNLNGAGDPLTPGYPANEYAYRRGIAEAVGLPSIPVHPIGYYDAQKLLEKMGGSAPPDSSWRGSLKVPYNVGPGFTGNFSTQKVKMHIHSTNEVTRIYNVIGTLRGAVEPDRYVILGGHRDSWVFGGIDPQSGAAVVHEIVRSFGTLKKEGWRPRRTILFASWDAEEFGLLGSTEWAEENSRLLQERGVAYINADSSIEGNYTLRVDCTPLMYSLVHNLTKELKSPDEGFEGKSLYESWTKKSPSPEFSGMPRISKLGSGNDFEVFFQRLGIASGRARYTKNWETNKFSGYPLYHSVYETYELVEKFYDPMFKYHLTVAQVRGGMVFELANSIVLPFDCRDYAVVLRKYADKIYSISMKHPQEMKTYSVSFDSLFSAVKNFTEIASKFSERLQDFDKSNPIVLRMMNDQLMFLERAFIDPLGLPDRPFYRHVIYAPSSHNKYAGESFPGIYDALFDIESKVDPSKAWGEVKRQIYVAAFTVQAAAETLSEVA
Procedure: Determination of the PSMA affinity was performed by saturation binding assays using PC-3 PIP cells and different concentrations of ^nat/44Sc-, ^nat/177Lu-, ^nat/68Ga-PSMA-617, or ^nat/68Ga-PSMA-11, respectively (Additional file 1).
Determination of the KD values was performed by saturation binding assays using PSMA^pos PC-3 PIP cells. After successful radiolabeling of the PSMA ligands, a 2.5-fold molar excess of the corresponding cold metal was added and the reaction mixture was incubated for another 10 min at 95 °C. Quality control was performed again after reaction of the radioligands with the “cold” metal as described in the main manuscript.
The cells were seeded in 48-well-plates (8 x 10^5 cells in 500 uL RPMI medium/well) allowing adhesion and growth overnight at 37 °C and 5% CO2. For the entire experiment, the well-plates were kept on ice. After removal of the supernatant, the cells were washed once with ice-cold PBS pH 7.4 prior to the addition of different concentrations (1 nM-2 µM) of either ^nat/44Sc-, ^nat/177Lu-, ^nat/67/68Ga-PSMA-617 or ^nat/67/68Ga-PSMA-11 in ice-cold RPMI medium without supplements. For the determination of non-specific binding, cell samples were incubated with 2-phosphonomethyl pentanedioic acid (2-PMPA, 200 μM). The well-plates were incubated for 30 min at 4 °C. Then, the supernatants were removed and the cells washed twice with ice-cold PBS followed by addition of NaOH (1 M, 600 µL) to each well. The cell suspensions were transferred to 4 mL tubes for measurement in a γ-counter (Wallac Wizard 1480, Perkin Elmer). The KD values were determined by plotting specific-binding (total binding minus unspecific binding) against the molar concentration of the added radioligands followed by nonlinear regression analysis using GraphPad Prism 7 software.

[3] = test system: PC-3 PIP/flu tumor-bearing mice; assay: Biodistribution in PC-3 PIP/flu tumor-bearing mice; conditions: i.v.; for PC-3 flu Tumor: PSMA^neg xenograft; for PC-3 PIP Tumor: PSMA^pos xenograft
Procedure: In vivo experiments were approved by the local veterinarian department and conducted in accordance with the Swiss law of animal protection. All mice were obtained from Charles River Laboratories (Sulzfeld, Germany), at the age of 5–6 weeks. Female, athymic nude Balb/c mice were subcutaneously inoculated with PC-3 PIP cells (6 × 10^6 cells in 100 μL Hank’s balanced salt solution (HBSS) with Ca^2+/Mg^2+) on the right shoulder and with PC-3 flu cells (5 × 10^6 cells in 100 μL HBSS with Ca^2+/Mg^2+) on the left shoulder 2 weeks before the performance of the experiments.
Mice were sacrificed at different time points post injection (p.i.) of the radioligands. Selected tissues and organs were collected, weighed and measured using a γ-counter. The results were decay-corrected and listed as a percentage of the injected activity per gram of tissue mass (% IA/g).

O=C([O-])CN(CCN(CC(=O)[O-])Cc1cc(CCC(=O)NCCCCCC(=O)NCCCC[C@H](NC(=O)N[C@@H](CCC(=O)O)C(=O)O)C(=O)O)ccc1[O-])Cc1cc(CCC(=O)O)ccc1[O-].[68Ga+3] [^68Ga-PSMA-11]
LogD values [1]: −4.82 ± 0.07
accumulation in the kidneys on PET/CT images vs. the other radioligands [2]: significantly higher extent
Kd (PSMA): 87 ± 27 nM
Relative PSMA-binding affinity (PSMA): 0.4
Blood ([3]; 15 min p.i.): 5.05 ± 0.58 % IA/g
Bone ([3]; 15 min p.i.): 1.85 ± 0.20 % IA/g
Heart ([3]; 15 min p.i.): 2.45 ± 0.29 % IA/g
Intestines ([3]; 15 min p.i.): 1.42 ± 0.07 % IA/g
Kidneys ([3]; 15 min p.i.): 74.7 ± 7.02 % IA/g
Liver ([3]; 15 min p.i.): 2.00 ± 0.32 % IA/g
Lung ([3]; 15 min p.i.): 3.87 ± 0.22 % IA/g
Muscle ([3]; 15 min p.i.): 1.21 ± 0.11 % IA/g
Salivary glands ([3]; 15 min p.i.): 2.73 ± 0.27 % IA/g
Spleen ([3]; 15 min p.i.): 5.33 ± 1.78 % IA/g
Stomach ([3]; 15 min p.i.): 1.42 ± 0.15 % IA/g
PC-3 flu Tumor ([3]; 15 min p.i.): 2.19 ± 0.05 % IA/g
PC-3 PIP Tumor ([3]; 15 min p.i.): 31.5 ± 13.0 % IA/g
Blood ([3]; 30 min p.i.): 2.55 ± 0.72 % IA/g
Bone ([3]; 30 min p.i.): 0.81 ± 0.14 % IA/g
Heart ([3]; 30 min p.i.): 1.31 ± 0.19 % IA/g
Intestines ([3]; 30 min p.i.): 1.20 ± 0.24 % IA/g
Kidneys ([3]; 30 min p.i.): 86.7 ± 14.6 % IA/g
Liver ([3]; 30 min p.i.): 1.55 ± 0.04 % IA/g
Lung ([3]; 30 min p.i.): 2.23 ± 0.33 % IA/g
Muscle ([3]; 30 min p.i.): 0.67 ± 0.06 % IA/g
Salivary glands ([3]; 30 min p.i.): 1.59 ± 0.18 % IA/g
Spleen ([3]; 30 min p.i.): 4.76 ± 1.13 % IA/g
Stomach ([3]; 30 min p.i.): 0.85 ± 0.19 % IA/g
PC-3 flu Tumor ([3]; 30 min p.i.): 1.04 ± 0.17 % IA/g
PC-3 PIP Tumor ([3]; 30 min p.i.): 49.3 ± 4.97 % IA/g
Blood ([3]; 2 h p.i.): 0.08 ± 0.01 % IA/g
Bone ([3]; 2 h p.i.): 0.06 ± 0.00 % IA/g
Heart ([3]; 2 h p.i.): 0.18 ± 0.03 % IA/g
Intestines ([3]; 2 h p.i.): 0.95 ± 0.86 % IA/g
Kidneys ([3]; 2 h p.i.): 58.8 ± 7.62 % IA/g
Liver ([3]; 2 h p.i.): 0.56 ± 0.04 % IA/g
Lung ([3]; 2 h p.i.): 0.31 ± 0.10 % IA/g
Muscle ([3]; 2 h p.i.): 0.06 ± 0.01 % IA/g
Salivary glands ([3]; 2 h p.i.): 0.39 ± 0.01 % IA/g
Spleen ([3]; 2 h p.i.): 2.18 ± 0.38 % IA/g
Stomach ([3]; 2 h p.i.): 0.35 ± 0.17 % IA/g
PC-3 flu Tumor ([3]; 2 h p.i.): 0.13 ± 0.02 % IA/g
PC-3 PIP Tumor ([3]; 2 h p.i.): 40.0 ± 2.55 % IA/g

O=C([O-])CN1CCN(CC(=O)[O-])CCN(CC(=O)NCC2CCC(C(=O)NC(Cc3ccc4ccccc4c3)C(=O)NCCCCC(NC(=O)NC(CCC(=O)O)C(=O)O)C(=O)O)CC2)CCN(CC(=O)[O-])CC1.[68Ga+3] (stereo not shown) [^68Ga-PSMA-617]
LogD values [1]: −4.30 ± 0.10
Kd (PSMA): 72 ± 29 nM
Relative PSMA-binding affinity (PSMA): 0.5
Blood ([3]; 15 min p.i.): 6.88 ± 0.89 % IA/g
Bone ([3]; 15 min p.i.): 1.72 ± 0.06 % IA/g
Heart ([3]; 15 min p.i.): 2.61 ± 0.49 % IA/g
Intestines ([3]; 15 min p.i.): 1.55 ± 0.19 % IA/g
Kidneys ([3]; 15 min p.i.): 22.8 ± 0.81 % IA/g
Liver ([3]; 15 min p.i.): 4.74 ± 0.43 % IA/g
Lung ([3]; 15 min p.i.): 4.70 ± 0.09 % IA/g
Muscle ([3]; 15 min p.i.): 1.53 ± 0.24 % IA/g
Salivary glands ([3]; 15 min p.i.): 2.30 ± 0.37 % IA/g
Spleen ([3]; 15 min p.i.): 3.92 ± 0.28 % IA/g
Stomach ([3]; 15 min p.i.): 1.48 ± 0.09 % IA/g
PC-3 flu Tumor ([3]; 15 min p.i.): 2.30 ± 0.18 % IA/g
PC-3 PIP Tumor ([3]; 15 min p.i.): 28.7 ± 5.26 % IA/g
Blood ([3]; 30 min p.i.): 3.46 ± 0.98 % IA/g
Bone ([3]; 30 min p.i.): 1.00 ± 0.17 % IA/g
Heart ([3]; 30 min p.i.): 1.47 ± 0.34 % IA/g
Intestines ([3]; 30 min p.i.): 0.98 ± 0.28 % IA/g
Kidneys ([3]; 30 min p.i.): 15.5 ± 3.46 % IA/g
Liver ([3]; 30 min p.i.): 2.91 ± 0.65 % IA/g
Lung ([3]; 30 min p.i.): 2.55 ± 0.51 % IA/g
Muscle ([3]; 30 min p.i.): 0.80 ± 0.10 % IA/g
Salivary glands ([3]; 30 min p.i.): 1.06 ± 0.23 % IA/g
Spleen ([3]; 30 min p.i.): 2.50 ± 0.82 % IA/g
Stomach ([3]; 30 min p.i.): 1.09 ± 0.40 % IA/g
PC-3 flu Tumor ([3]; 30 min p.i.): 1.23 ± 0.35 % IA/g
PC-3 PIP Tumor ([3]; 30 min p.i.): 48.5 ± 8.51 % IA/g
Blood ([3]; 2 h p.i.): 0.14 ± 0.00 % IA/g
Bone ([3]; 2 h p.i.): 0.09 ± 0.02 % IA/g
Heart ([3]; 2 h p.i.): 0.09 ± 0.01 % IA/g
Intestines ([3]; 2 h p.i.): 0.12 ± 0.03 % IA/g
Kidneys ([3]; 2 h p.i.): 3.48 ± 0.18 % IA/g
Liver ([3]; 2 h p.i.): 1.60 ± 0.05 % IA/g
Lung ([3]; 2 h p.i.): 0.20 ± 0.00 % IA/g
Muscle ([3]; 2 h p.i.): 0.05 ± 0.01 % IA/g
Salivary glands ([3]; 2 h p.i.): 0.14 ± 0.03 % IA/g
Spleen ([3]; 2 h p.i.): 0.91 ± 0.14 % IA/g
Stomach ([3]; 2 h p.i.): 0.16 ± 0.11 % IA/g
PC-3 flu Tumor ([3]; 2 h p.i.): 0.18 ± 0.03 % IA/g
PC-3 PIP Tumor ([3]; 2 h p.i.): 55.8 ± 14.2 % IA/g
